Legend:
[1] = test system: rat Chronic Constriction Injury model (Bennett Model); assay: Hargreaves test of thermal hyperalgesia (thermal paw withdrawal latency) in rat chronic constriction injury model; type: in vivo, Wistar rat
Description: (§1) The inventors evaluated the efficacy of a various alpha-2-adrenergic receptor agonists and compared them against saline in the rat Chronic Constriction Injury model (i.e., Bennett Model) using Wistar rats. […] The doses given would mimic those achievable by a continuous release drug depot containing a biodegradable polymer (7 rats in each group).
(§2) Each group received the treatment indicated above for total of 15 days and subjected to the following two tests: (1) the Hargreaves test on days 7 and 14; and (2) the von Frey test on days 8 and 15.
(§3) Results from another rat chronic constriction injury model study similar to that discussed in Example 5, except some drug compositions having predominantly alpha 1 agonist activity and some drug compositions having predominantly alpha 2 agonist activity were given as indicated in the table below. The doses given would mimic those achievable by a continuous release drug depot containing a biodegradable polymer (7 rats in each group).
(§4) Each group received the treatment indicated above for total of 14 days and the following two tests: (1) the Hargreaves test on days 7 and 14; and (2) the von Frey test on days 8 and 15.

[2] = test system: rat Chronic Constriction Injury model (Bennett Model); assay: von Frey monofilament test of mechanical allodynia (mechanical threshold) in rat chronic constriction injury model; type: in vivo, Wistar rat
Description: as §1, §2, §3, §4

[3] = 5 mg/kg subcutaneous every day for 15 days, day 15, vs saline
[4] = 100 micrograms/kg subcutaneous every day for 15 days, days 7 and 14, FIG. 36

`N=C(N)N/N=C/c1c(Cl)cccc1Cl` [guanabenz] was tested, and the “pain behavioral response for thermal hyperalgesia” value ([1]; 1 mg/kg subcutaneous every day for 15 days, day 7, FIG. 37) was “statistically significant result of decreasing pain responses”, the “pain behavioral response for mechanical allodynia” value ([2]; 1 mg/kg subcutaneous every day, day 8, vs saline, FIG. 38) was “decreased mechanical allodynia” and the “pain behavioral response for mechanical allodynia” value [2, 3] was “decreased mechanical allodynia”.
For `N=C(N)NC(=O)Cc1c(Cl)cccc1Cl` [guanfacine], the “pain behavioral response for thermal hyperalgesia” value ([1]; 5 mg/kg subcutaneous every day for 15 days, days 7 and 14, FIG. 36) was “statistically significant result of decreasing pain responses” and the “pain behavioral response for mechanical allodynia” value [2, 3] was “statistically significant results of decreasing pain responses”.
For `Cc1cccc(C(C)c2cnc[nH]2)c1C` (centres unmarked) [medetomidine], the “pain behavioral response for thermal hyperalgesia” value [1, 4] was “statistically significant result of decreasing pain responses”, the “pain behavioral response for thermal hyperalgesia” value ([1]; 200 micrograms/kg subcutaneous every day for 15 days, day 14, FIG. 36) was “statistically significant result of decreasing pain responses” and the “pain behavioral response for mechanical allodynia” value ([2]; 200 micrograms/kg subcutaneous every day for 15 days, day 15, vs saline, FIG. 35) was “statistically significant results of decreasing pain responses”.
`CNC[C@H](O)c1cccc(O)c1` [phenylephrine] was tested, and the “pain behavioral response for thermal hyperalgesia” value ([1]; 2 mg/kg subcutaneous every day for 15 days, day 7, FIG. 37) was “statistically significant result of decreasing pain responses”, the “pain behavioral response for thermal hyperalgesia” value ([1]; 10 mg/kg subcutaneous every day for 15 days, days 7 and 14, FIG. 37) was “statistically significant result of decreasing pain responses” and the “pain behavioral response for mechanical allodynia” value ([2]; 10 mg/kg subcutaneous every day, day 8, vs saline, FIG. 38) was “decreased mechanical allodynia”.
In the case of `Clc1ccc2nsnc2c1NC1=NCCN1` [tizanidine], the “pain behavioral response for thermal hyperalgesia” value [1, 4] is reported as “statistically significant result of decreasing pain responses” and the “pain behavioral response for mechanical allodynia” value ([2]; 100 micrograms/kg subcutaneous every day for 15 days, day 15, vs saline, FIG. 35) is reported as “statistically significant results of decreasing pain responses”.
In the case of `Clc1cccc(Cl)c1N=C1NCCN1` [clonidine, 2,6-dichloro-N-2-imidazolidinyldenebenzenamine], the “pain behavioral response for thermal hyperalgesia” value ([1]; 0.02 mg/kg subcutaneous every day for 15 days, days 7 and 14) is reported as “statistically significant result of decreasing pain responses”, the “pain behavioral response for mechanical allodynia” value ([2]; 0.02 mg/kg subcutaneous every day for 15 days, day 15, vs saline, FIG. 35) is reported as “statistically significant results of decreasing pain responses” and the “pain behavioral response (measured as a percentage of baseline) for mechanical allodynia” value ([2]; 0.02 mg/kg/day subcutaneously, compared to unloaded polymer depots, FIG. 4) is reported as “reduced the behavioral response”.
In the case of `Cc1cc(C(C)(C)C)c(O)c(C)c1CC1=NCCN1` [oxymetazoline], the “pain behavioral response for thermal hyperalgesia” value ([1]; 0.1 mg/kg subcutaneous every day for 15 days, day 7, FIG. 37) is reported as “statistically significant result of decreasing pain responses”, the “pain behavioral response for thermal hyperalgesia” value ([1]; 0.3 mg/kg subcutaneous every day for 15 days, days 7 and 14, FIG. 37) is reported as “statistically significant result of decreasing pain responses” and the “pain behavioral response for mechanical allodynia” value ([2]; 0.1 mg/kg subcutaneous every day for 15 days, day 8 and 15, vs saline group, FIG. 38) is reported as “decreasing pain responses”. For the same compound, the “pain behavioral response for mechanical allodynia” value ([2]; 0.3 mg/kg subcutaneous every day for 15 days, day 8 and 15, vs saline group, FIG. 38) was “decreasing pain responses”.

From US8889173B2, “Alpha adrenergic receptor agonists for treatment of pain and/or inflammation” (Warsaw Orthopedic, Inc., priority 2008, dated 2014)
